Laboratory results published in patent publication US20090028873A1, “SUBSTITUTED CYCLOHEXANOLS” (AUSPEX PHARMACEUTICALS, INC., priority 2007, published 2009).
Structures can show the parent of a compound that is named as a salt.

Assay: In Vitro Human Liver Microsomal (HLM) Stability Assay
Assay type: in vitro ADME
Settings: vs non-isotopically enriched drug, 1 μM, 4 mg per mL liver microsome protein, 37° C.
Procedure: Liver microsomal stability assays are conducted at 4 mg per mL liver microsome protein with an NADPH-generating system in 2% NaHCO3 (2.2 mM NADPH, 25.6 mM glucose 6-phosphate, 6 units per mL glucose 6-phosphate dehydrogenase and 3.3 mM MgCl2). Test compounds are prepared as solutions in 20% acetonitrile-water and added to the assay mixture (final assay concentration 1 μM) and incubated at 37° C. Final concentration of acetonitrile in the assay should be <1%. Aliquots (50 μL) are taken out at times 0, 0.5, 1, 1.5, and 2 hours, and diluted with ice cold acetonitrile (200 μL) to stop the reactions. Samples are centrifuged at 12,000 RPM for 10 min to precipitate proteins. Supernatants are transferred to micro centrifuge tubes and stored for LC/MS/MS analysis of the degradation half-life of the test compounds.
Results of In Vitro Human Liver Microsomal (HLM) Stability Assay

## [2H]O[C@@]1(c2c([2H])c([2H])c([2H])c(OC([2H])([2H])[2H])c2[2H])C([2H])([2H])C([2H])([2H])C([2H])([2H])C([2H])([2H])[C@@]1([2H])C([2H])([2H])N(C([2H])([2H])[2H])C([2H])([2H])[2H] [Example 1, d25-(−)-(1S,2S)-2-[(Dimethylamino)-methyll-1-(3-methoxyphenyl)-cyclohexanol)]
  % increase of HLM degradation half-life 0%-50%: + (0%-50%)

## [2H]O[C@]1(c2c([2H])c([2H])c([2H])c(OC([2H])([2H])[2H])c2[2H])C([2H])([2H])C([2H])([2H])C([2H])([2H])C([2H])([2H])[C@]1([2H])C([2H])([2H])N(C([2H])([2H])[2H])C([2H])([2H])[2H] [Example 2]
Column −25%-0%
  % increase of HLM degradation half-life −25%-0%: + (−25%-0%)

## [2H]c1c([2H])c(O)c([2H])c([C@]2(O)C([2H])([2H])C([2H])([2H])C([2H])([2H])C([2H])([2H])[C@@]2([2H])C([2H])([2H])N(C([2H])([2H])[2H])C([2H])([2H])[2H])c1[2H] [Example 3]
  % increase of HLM degradation half-life 0%-50%: + (0%-50%)

## COc1cccc(C2(O)CCCCC2CN(C)C)c1 (stereo not drawn) [Example 5, 2-(Dimethylaminomethyl)-1-(3-methoxyphenyl)-cyclohexanol, reference compound]
  % increase of HLM degradation half-life 50%-150%: + (50%-150%)

## COc1cccc([C@@]2(O)CCCC[C@@H]2CN(C)C)c1 [Example 6, (1R, 2R)-2-(Dimethylaminomethyl)-1-(3-methoxyphenyl)-cyclohexanol hydrochloride, reference compound]
  % increase of HLM degradation half-life 50%-150%: + (50%-150%)

## [2H]C([2H])([2H])Oc1cccc(C2(O)CCCCC2CN(C)C)c1 (stereo not drawn) [Example 8, d3-2-(Dimethylaminomethyl)-1-(3-methoxyphenyl)-cyclohexanol]
  % increase of HLM degradation half-life 0%-50%: + (0%-50%)

## [2H]C([2H])([2H])Oc1cccc([C@@]2(O)CCCC[C@@H]2CN(C)C)c1 [Example 9, d3-(1R, 2R)-2-(Dimethylaminomethyl)-1-(3-methoxyphenyl)-cyclohexanol hydrochloride]
  % increase of HLM degradation half-life 50%-150%: + (50%-150%)

## [2H]C([2H])([2H])N(CC1CCCCC1(O)c1cccc(OC)c1)C([2H])([2H])[2H] (stereo not drawn) [Example 11]
  % increase of HLM degradation half-life 50%-150%: + (50%-150%)

## [2H]C([2H])([2H])N(C[C@H]1CCCC[C@]1(O)c1cccc(OC)c1)C([2H])([2H])[2H] [Example 12, d6-(1R,2R)-2-(Dimethylaminomethyl)-1-(3-methoxyphenyl)-cyclohexanol hydrochloride]
Column >150%
  % increase of HLM degradation half-life >150%: + (>150%)
